Data taken from publication PMC11542830, “3-nitropyridine analogues as novel microtubule-targeting agents” (PLOS ONE, 2024).

Legend:
Type in all cases: cell-based
786-0 = test: NCI60 5-dose screen, 786-0; details: Homo sapiens, renal cancer, Fig 1D, read-out: Log10 GI50 (786-0) (converted)
Method: (§1) The screening methodology used in the NCI60 Cell 5-Doses screen is described in detail at https://dtp.cancer.gov/discovery_development/nci-60/methodology.htm. Briefly, cells are seeded in 96 well plates at an appropriate density and incubated for 1 day. After 1 day, some of the plates are processed to determine a time zero density. To the remaining plates, compounds are added over a 5-log M concentration range (1 log dilutions from 10^-4M to 10^-8M). Plates are incubated for two additional days, then fixed and stained with sulforhodamine B. Growth inhibition is calculated relative to cells without drug treatment and the time zero control. The GI50 is the concentration of a compound that causes 50% growth inhibition, relative to the no drug control.

UACC-62 = test: NCI60 5-dose screen, UACC-62; details: Homo sapiens, melanoma, Fig 1D, read-out: Log10 GI50 (UACC-62) (converted)
Method: as §1

MDA-MB-231/ATCC = test: NCI60 5-dose screen, MDA-MB-231/ATCC; details: Homo sapiens, breast cancer, Fig 1D, read-out: Log10 GI50 (MDA-MB-231/ATCC) (converted)
Method: as §1

HT-29 cells = test: Clonogenic assay on HT-29 cells; details: Homo sapiens, 144 h; HT-29, 6 days of incubation, colonies counted; read-out: IC50 (HT-29 cell proliferation, clonogenic assay)
Method: All experiments were performed under standard cell culture conditions at 37°C and 5% CO2. Colorectal adenocarcinoma HT-29 cells were seeded at 300 cells/well in triplicate in six well microtiter plates in RPMI-1640 medium supplemented with 10% fetal bovine serum and 25 μg/ml gentamicin (complete medium). Twenty-four hours later, the compounds were added in complete medium in final concentrations ranging from 10 μM to 0.1 nM. Cells were allowed to grow until they formed colonies for 6 days. The colonies were fixed with 100% methanol, stained with Trypan blue 0.4% in saline and the number of colonies was counted. The number of colonies in the treated wells was normalized to the number obtained in the untreated wells. Three biological independent experiments were performed for each compound.

SK-MEL-2 = test: NCI60 5-dose screen, SK-MEL-2; details: Homo sapiens, melanoma, Fig 1D, read-out: Log10 GI50 (SK-MEL-2) (converted)
Method: as §1

KM12 = test: NCI60 5-dose screen, KM12; details: Homo sapiens, colon cancer, Fig 1D, read-out: Log10 GI50 (KM12) (converted)
Method: as §1

SF-268 = test: NCI60 5-dose screen, SF-268; details: Homo sapiens, CNS cancer, Fig 1D, read-out: Log10 GI50 (SF-268) (converted)
Method: as §1

UO-31 = test: NCI60 5-dose screen, UO-31; details: Homo sapiens, renal cancer, Fig 1D, read-out: Log10 GI50 (UO-31) (converted)
Method: as §1

NCI-H23 = test: NCI60 5-dose screen, NCI-H23; details: Homo sapiens, non-small cell lung cancer, Fig 1D, read-out: Log10 GI50 (NCI-H23) (converted)
Method: as §1

NCI-H522 = test: NCI60 5-dose screen, NCI-H522; details: Homo sapiens, non-small cell lung cancer, Fig 1D, read-out: Log10 GI50 (NCI-H522) (converted)
Method: as §1

PBMC = test: Annexin V/PI flow cytometry viability, PBMC; details: Homo sapiens, 72 hours, normal cells, Fig 1C
Excerpt: Buffy coat preparations from healthy donors were obtained from the Blood Transfusion Center in Leuven, Belgium. Peripheral blood mononuclear cells (PBMC) were isolated by density gradient centrifugation over Lymphoprep™ (Axis Shield PoC AS; density 1.077 ± 0.001 g/mL) and cultured in cell culture medium (DMEM/F12, Gibco Thermo Fisher Scientific) containing 8% fetal bovine serum. Each donor consented to the use of his blood for research purposes.
(§2) Cell viability in cancer cell lines treated with compound was measured in a 3-day MTS cell proliferation assay using the CellTiter 96 AQueous Non-Radioactive Cell Proliferation Assay reagent (Promega) according to the manufacturer’s instructions. Absorbance was read at 490 nm on a SaFire II microplate reader (Tecan). CC50 values were calculated by fitting the obtained MTS cell viability data in GraphPad Prism using a 4-parameter log–based fit for inhibitors. Apoptosis induction and cell death upon compound treatment in PBMC was measured using the Alexa Fluor 488 Annexin V/Dead Cell Apoptosis Kit (Thermo Fisher Scientific), with readout on a FACSCanto II flow cytometer (BD Biosciences). For cell cycle analysis, Jurkat cells were seeded at 400,000 cells per well in 12-well tissue culture plates and treated with the test compounds at the indicated concentrations for 24 h. […] The compounds were evaluated in duplo in two independent experiments.

SK-MEL-5 = test: NCI60 5-dose screen, SK-MEL-5; details: Homo sapiens, melanoma, Fig 1D, read-out: Log10 GI50 (SK-MEL-5) (converted)
Method: as §1

A549 cells = test: 3-day MTS cell viability assay, A549; details: Homo sapiens, 72 hours, Fig 1C
Method: (§3) All cancer cell lines (HT-29: colorectal adenocarcinoma, HCT-116: colorectal carcinoma, A549: lung epithelial carcinoma, PC3: prostate adenocarcinoma, Jurkat: acute T-cell leukemia, BC-1: primary effusion lymphoma) and the normal human embryonal lung fibroblast cell line MRC-5 were acquired from the American Type Culture Collection (ATCC). All cell lines were cultured as recommended by the suppliers. Culture media were purchased from Gibco (Thermo Fisher Scientific) and supplemented with 10 to 20% fetal bovine serum (HyClone, GE Healthcare Life Sciences) and 20–25 μg/mL gentamicin (Gibco, Thermo Fisher Scientific). […]
as §2, with “Biosciences).” for “Biosciences). For cell cycle analysis, Jurkat cells were seeded at 400,000 cells per well in 12-well tissue culture plates and treated with the test compounds at the indicated concentrations for 24 h.”

Jurkat cells = test: 3-day MTS cell viability assay, Jurkat; details: Homo sapiens, 72 hours, Fig 1C
Method: as §3
as §2, with “Biosciences).” for “Biosciences). For cell cycle analysis, Jurkat cells were seeded at 400,000 cells per well in 12-well tissue culture plates and treated with the test compounds at the indicated concentrations for 24 h.”

SF-539 = test: NCI60 5-dose screen, SF-539; details: Homo sapiens, CNS cancer, Fig 1D, read-out: Log10 GI50 (SF-539) (converted)
Method: as §1

HCT-116 = test: NCI60 5-dose screen, HCT-116; details: Homo sapiens, colon cancer, Fig 1D, read-out: Log10 GI50 (HCT-116) (converted)
Method: as §1

SMILES	GI50 (786-0)	GI50 (UACC-62)	GI50 (MDA-MB-231/ATCC)	IC50 (HT-29 cells)	GI50 (SK-MEL-2)	GI50 (KM12)	GI50 (SF-268)	GI50 (UO-31)	GI50 (NCI-H23)	GI50 (NCI-H522)	IC50 (PBMC)	GI50 (SK-MEL-5)	IC50 (A549 cells)	IC50 (Jurkat cells)	GI50 (SF-539)	GI50 (HCT-116)
Cc1cc(C)cc(Nc2ccc([N+](=O)[O-])c(NCCN3CCOCC3)n2)c1 [Compound 4AZA2891, 6-(3,5-dimethylanilino)-2-(2-morpholinoethylamino)-3-nitropyridine]	52.5 nM	< 10 nM	34.7 nM	5.4 nM	34.7 nM	< 10 nM	135 nM	1380 nM	27.5 nM	< 10 nM	76.7 µM	< 10 nM	20.3 nM	19.8 nM	< 10 nM	14.8 nM
Cc1ccnc(Nc2ccc([N+](=O)[O-])c(NCCN3CCOCC3)n2)c1 [Compound 4AZA2996, N^6-(4-methylpyridin-2-yl)-N^2-(2-morpholinoethyl)-3-nitropyridine-2,6-diamine]	12.9 nM	< 10 nM	38 nM	4 nM	30.2 nM	< 10 nM	58.9 nM	< 10 nM	15.5 nM	< 10 nM	14.1 µM	< 10 nM	12 nM	14 nM	< 10 nM	< 10 nM
